Test results from US9993494B2, “Compositions and methods for treating fibrotic disease” (eFFECTOR Therapeutics, Inc., priority 2014, dated 2018).

Test system: normal human lung fibroblasts
Assay: Ribosomal profiling: translational efficiency in TGFβ-treated fibroblasts
Type: cell-based
Conditions: TGFβ-treated fibroblasts
Procedure: Ribosomal profiling allows for measurement of changes in transcription and translation on a genome-wide basis accompanying TGFβ-dependent transformation of fibroblasts to myofibroblasts. Ribosomal profiles of the TGFβ-treated fibroblasts from Example 1 (about 6×10^6 cells/10 cm plate) were prepared and analyzed for changes in translational efficiencies with respect to potential disease-associated cellular changes accompanying this TGFβ-induced transformation.
Briefly, cells were washed with cold PBS supplemented with cycloheximide and lysed with 1× mammalian cell lysis buffer for 10 minutes on ice. Lysates were clarified by centrifugation for 10 minutes at 14,000 rpm and supernatants were collected. Cell lysates were processed to generate ribosomal protected fragments and total mRNA according to the instructions included with the ARTseq Ribosome Profiling Kit (Illumina, San Diego, Calif.). Sequencing of total RNA (RNA) and of ribosome-protected fragments of RNA (RPF) was carried out using RNA-Seq methodology according to the manufacturer's instructions (Illumina). To analyze the ribosomal profiles, RNA-Seq reads were processed with tools from the FASTX-Toolkit (fastq_quality_trimmer, fastx_clipper and fastx_trimmer). Unprocessed and processed reads were evaluated for a variety of quality measures using FastQC, and processed reads were mapped to the human genome using TopHat (see, e.g., Trapnell et al., Bioinformatics 25:1105, 2009). Gene-by-gene assessment of the number of fragments strictly and uniquely mapping to the coding region of each gene was conducted using HTSeq-count, a component of the HTSeq package. […] Genes with low counts in either RPF or RNA were excluded from differential analyses. Pathway and network analyses of differential data were conducted using Ingenuity Pathway Analysis (IPA).

CC(C=CC(=O)NO)=CC(C)C(=O)c1ccc(N(C)C)cc1 (stereo not drawn) [TSA, 7-[4-(dimethylamino)phenyl]-N-hydroxy-4,6-dimethyl-7-oxohepta-2,4-dienamide]
++ (++ = 1.5 to 2.0): renormalizing the translational profile of PDE7B (ENSG00000171408) | renormalizing the translational profile of LPAR3 (ENSG00000171517)
− (− = <0.9): renormalizing the translational profile of RPL9 (ENSG00000163682) | renormalizing the translational profile of RHOBTB3 (ENSG00000164292) | renormalizing the translational profile of RPL36AL (ENSG00000165502) | renormalizing the translational profile of RPL27A (ENSG00000166441) | renormalizing the translational profile of RP11-382A20.3.1 (ENSG00000166503) | renormalizing the translational profile of ANKDD1A (ENSG00000166839) | renormalizing the translational profile of RPL13 (ENSG00000167526) | renormalizing the translational profile of KIAA1024 (ENSG00000169330) | renormalizing the translational profile of HTRA3 (ENSG00000170801) | renormalizing the translational profile of CTPS (ENSG00000171793) | renormalizing the translational profile of QARS (ENSG00000172053) | renormalizing the translational profile of RPL38 (ENSG00000172809) | renormalizing the translational profile of MRPL45 (ENSG00000174100) | renormalizing the translational profile of RPL4 (ENSG00000174444) | renormalizing the translational profile of RPL15 (ENSG00000174748) | renormalizing the translational profile of DES (ENSG00000175084) | renormalizing the translational profile of EIF3F (ENSG00000175390) | renormalizing the translational profile of C14orf49 (ENSG00000176438) | renormalizing the translational profile of RPLP2 (ENSG00000177600) | renormalizing the translational profile of IMPDH2 (ENSG00000178035) | renormalizing the translational profile of DNAJC22 (ENSG00000178401) | renormalizing the translational profile of RPL35A (ENSG00000182899) | renormalizing the translational profile of LENG9 (ENSG00000182909) | renormalizing the translational profile of C22orf32 (ENSG00000183172) | renormalizing the translational profile of NPW (ENSG00000183971) | renormalizing the translational profile of ROBO2 (ENSG00000185008) | renormalizing the translational profile of PTCH1 (ENSG00000185920) | renormalizing the translational profile of POLR1D (ENSG00000186184) | renormalizing the translational profile of DYNC2H1 (ENSG00000187240) | renormalizing the translational profile of LRRK2 (ENSG00000188906) | renormalizing the translational profile of NACA (ENSG00000196531) | renormalizing the translational profile of LAMB3 (ENSG00000196878) | renormalizing the translational profile of RPL37A (ENSG00000197756) | renormalizing the translational profile of RPL12 (ENSG00000197958) | renormalizing the translational profile of LPAR1 (ENSG00000198121) | renormalizing the translational profile of RPL23A (ENSG00000198242) | renormalizing the translational profile of PLN (ENSG00000198523) | renormalizing the translational profile of RPL10A (ENSG00000198755) | renormalizing the translational profile of CES1 (ENSG00000198848) | renormalizing the translational profile of RPL39 (ENSG00000198918) | renormalizing the translational profile of CARD16 (ENSG00000204397) | renormalizing the translational profile of MICA (ENSG00000204520) | renormalizing the translational profile of GNB2L1 (ENSG00000204628) | renormalizing the translational profile of RPL17 (ENSG00000215472) | renormalizing the translational profile of RPL41 (ENSG00000229117) | renormalizing the translational profile of CHCHD10 (ENSG00000250479) | renormalizing the translational profile of EEF1G (ENSG00000254772) | effect in renormalizing the translational profile of the gene (gene RPS2 (ENSG00000140988)) | effect in renormalizing the translational profile of the gene (gene RPS3 (ENSG00000149273)) | effect in renormalizing the translational profile of the gene (gene RPS3A (ENSG00000145425)) | effect in renormalizing the translational profile of the gene (gene RPS4X (ENSG00000198034)) | effect in renormalizing the translational profile of the gene (gene RPS4Y1 (ENSG00000129824)) | effect in renormalizing the translational profile of the gene (gene RPS5 (ENSG00000083845))
13 genes: number of genes whose translational efficiency was uniquely modulated by the compound (duplicate ribosomal profiles)
+ (+ = 0.9 to 1.5): renormalizing the translational profile of EEF2 (ENSG00000167658) | renormalizing the translational profile of CA5B (ENSG00000169239) | renormalizing the translational profile of MURC (ENSG00000170681) | renormalizing the translational profile of CLCF1 (ENSG00000175505) | renormalizing the translational profile of AMIGO3 (ENSG00000176020) | renormalizing the translational profile of PDE4B (ENSG00000184588) | renormalizing the translational profile of RPL14 (ENSG00000188846) | renormalizing the translational profile of PCBP2 (ENSG00000197111) | renormalizing the translational profile of MAP3K5 (ENSG00000197442) | renormalizing the translational profile of ARPC1A (ENSG00000241685)
